This note sets out measurements from patent US11040106B2, “Conjugates of kinase inhibitors and cyanine dyes” (priority 2018, dated 2021).

For data set [1], the system named is U87-MG (Glioblastoma) cells. Nature of the data set: Light and dark toxicity on U87-MG cells. Type of data set: cell-based, human.
The subject of a further data set is HUVEC. Nature of the data set: Light and dark toxicity on HUVEC. The conditions noted are these: 1 h incubation, 10 minutes irradiation. Type of data set: cell-based. The source says: HUVEC cells are non-carcinogentic, “normal” […] cells.
For data set [2], the system named is U87-MG (Glioblastoma) cells as compared to HUVEC (normal cells). The experiment in a line: Uptake by U87-MG cells as compared to HUVEC. Type of data set: cell-based, human.
The next data set is described as follows: Photophysical properties. It is filed as physicochemical.
Data set [3] concerns U87-MG cells. Nature of the data set: Cytotoxicity of ICG, MHI-148 and QCy, 72 h in the dark, AlamarBlue. It is filed as cell-based, human. From the text:
Cytotoxicity of QCy was studied using U87-MG cells (a glioblastoma multiforme line).

Data set [4] in a line: Photostability under LED irradiation at 780 nm. Type of data set: physicochemical. Particulars: PBS pH 7.4, LED 780 nm. As for the experimental part:
Initially, equimolar concentrations (20 μM) were used; QCy was reproducibly and more robust than the other two, but the difference was more than anticipated so the experimental design was suspected.

The test system of data set [5] is U87-MG glioblastoma cells. The experiment in a line: Organelle localization of the fluors (confocal imaging). The conditions noted are these: 37° C., DMEM/F12 with 10% FBS pH 7.4. Type of data set: cell-based, human.
The nature of data set [6]: Aggregation: concentration dependence of absorbance spectra. It is filed as physicochemical. Particulars: 1.25-20 μM, 10 mM pH 7.4 PBS. Here is the method: FIGS. 37A and 37B show concentration dependence of absorbance spectra in the range 1.25-20 μM in 10 mM pH 7.4 PBS buffer a, (B) MHI-148 and b, (1) QCy.
Shoulders of that kind and indicative of H-aggregates, ie associative oligomers in which the transition moments of the monomers are not well aligned leading to […] (blue) shifts. Concentration dependences of absorbance spectra of QCy and MHI-148 (structurally the closest) were determined to explore H-aggregation further.

The nature of a further data set: Solubility in water. It is filed as physicochemical. As for the experimental part:
1-NMe2 is water soluble up until 1000 μM whereas 1-CH2 precipitates at 100 μM.

Data set [7] deals with MDA-MB-231 “triple negative” breast cancer cells. The experiment in a line: Cytotoxicity (cell viability) on MDA-MB-231 cells. It is filed as cell-based. The conditions noted are these: MDA-MB-231 (breast cancer cells).
The subject of a further data set is HEPG2 cells. Nature of the data set: Cytotoxicity (cell viability, MTT assay) on HEPG2 cells. Type of data set: cell-based. Particulars: HEPG2 cells (liver cancer). As for the experimental part: Approximately 5000 HEPG2 cells/well were seeded on 96 well plate containing 10% fetal bovine serum. Cells were allowed to adhere overnight before test compounds were added. Stock solutions of 1a (0.02 M in DMSO) were diluted with protein-free medium (PFHM-II) to make desired final concentrations varying from 0.01 to 80 μM. The cells were incubated with the desired concentration for 48 h. The cell viabilities were calculated using MTT assay. Briefly, 20 μL of 3-(4,5-dimethylthiazol-2-yl)-2,5-diphenyltetrazolium bromide MTT (5 mg/mL, in Hank's balanced salt solution) were added and the cells were incubated for an additional 3.5 h. The medium was then removed, and […] of DMSO was added to dissolve the formazan crystal formed. The optical density of each well (at 570 nm) was measured with a BioTek Synergy 4 Microplate Reader. The viability of each cell line in response to the treatment with tested compounds was calculated as: % dead cells=100−(OD treated/OD control)×100.

Data set [8] concerns U87-MG cells. Nature of the data set: Cytotoxicity (cell viability) on U87-MG cells. It is filed as cell-based.
The next data set deals with K562 leukemia cells. Nature of the data set: Cytotoxicity (cell viability) on K562 cells. It is filed as cell-based.

“Also recorded” adds a separate entry of the source. Like-named read-outs stand apart in the source and are kept apart here. Bounds are passed on as bounds.

As to `CC1(C)C(=CC=C2CCCC(C=CC3=[N+](CCCCCC(=O)O)c4ccc(I)cc4C3(C)C)=C2Cl)N(CCCCCC(=O)O)c2ccc(I)cc21` [Compound 2aa], the “light versus dark toxicity” value in data set [1] (1, 2, 4 and 6 h incubation, 10 mins irradiation) is reported as “Light toxicity was more than light in every case”; in data set [1] (1 h incubation, irradiation 5, 10, 15, 20 minutes), “kills the cells more in light than in dark”. Further, the “phototoxic effect on normal cells” value in the data set with HUVEC was “does not significantly kill normal cells”. For the same molecule, in data set [2], the “uptake by U87-MG cells compared to HUVEC” value is “the cancer cells uptake more of the compound”.

In the case of `CC1(C)C(=CC=C2C[N+](C)(C)CC(C=CC3=[N+](CCCCCC(=O)O)c4ccccc4C3(C)C)=C2Cl)N(CCCCCC(=O)O)c2ccccc21` [QCy], the “fluorescence quantum yield relative to ICG” value in the data set “Photophysical properties” is recorded as “about three times greater”. Besides, in “Photophysical properties” (5 μM, 10 mM pH 7.4 PBS), the “absorbance of equimolar solutions” value was “greater absorbance than ICG or MHI-148” and the “fluorescence brightness of equimolar solutions” value is given as “markedly higher than the other two fluors”. Also, in the data set “Photophysical properties” (10 mM PBS buffer pH 7.4), the “brightness (εmax × Φ)” value came to 9901 and the εmax was 192460 cm^−1M^−1. Also, the “brightness compared with 1-CH2 (in words)” value in “Photophysical properties” (PBS buffer) is on record as “brighter dye than 1-CH2”. In the data set “Photophysical properties” (PBS, pH 7.4), the “brightness relative to 1-CH2” value was determined as 2 × and the “quantum yield relative to 1-CH2” value was 2 ×. For the same molecule, the “shift of absorbance and fluorescence maxima to shorter wavelengths” value in “Photophysical properties” (compared with ICG and 1-CH2) is on record as around 30 nm. The “extinction coefficient compared with 1-CH2 (in words)” value in “Photophysical properties” (in PBS buffer and in water) was “stronger extinction coefficient than 1-CH2”. The “extinction coefficient relative to 1-CH2” value in “Photophysical properties” (in water) is around 3 ×. For the same molecule, in the data set with U87-MG cells [3], the IC50 was above 80 µM and the “cytotoxicity (in words)” value is listed as “not very toxic until 80 μM”. Further, the “photostability (in words)” value in [4] was “almost no decomposition after 1 h continuous illumination; also recorded: the most photostable”. Further, in [4] (listed as 1-NMe2), the “photostability (in words)” value was “more stable than 1-CH2; also recorded: significantly more photostable than 1-CH2 or ICG”. In [5] (0.5 h), the “localization after time (h) 0.5” value is “golgi”. Also, in data set [5] (24 h), the “localization after time (h) 24” value was “lysosome and ER”. Besides, in data set [6], the “aggregation (H-aggregates) in aqueous media” value was “less prone to aggregation in aqueous media than MHI-148; also recorded: considerably less aggregated than MHI-148”. In “Solubility in water”, the “water solubility (in words)” value was “more water soluble than MHI-148” and the “water soluble up until (concentration)” value was at most 1000 µM. Besides, the “water solubility (in words)” value in “Solubility in water” (listed as 1-NMe2) is “significantly more soluble in water than 1-CH2”.

On to `CC(=O)c1c(C)c2cnc(Nc3ccc(N4CCN(C(=O)CCCCCN5/C(=C/C=C6\CCCC(/C=C/C7=[N+](CCCCCC(=O)[O-])c8ccccc8C7(C)C)=C6Cl)C(C)(C)c6ccccc65)CC4)cn3)nc2n(C2CCCC2)c1=O` [Compound 1b], for which the “cytotoxicity compared with parent dye, parent kinase inhibitor (and their mixture)” value was “more toxic than 1 and b; also recorded: more toxic than b or 1” in data set [7]; “more found to be toxic than individual 1, b or a combination of 1+b; also recorded: significantly more toxic than the parent dye, the parent kinase inhibitor, or a mixture of the dye and kinase inhibitor” with HEPG2 cells; “more found to be toxic than individual 1, b or a combination of 1+b; also recorded: significantly more toxic than the parent dye, the parent kinase inhibitor, or a mixture of the dye and kinase inhibitor” with U87-MG cells [8] (U87-MG cells (glioblastoma)); “more found to be toxic than individual 1, b or a combination of 1+b; also recorded: significantly more toxic than the parent dye, the parent kinase inhibitor, or a mixture of the dye and kinase inhibitor” in the data set with K562 leukemia cells. Besides, the “uptake by U87-MG cells compared to HUVEC” value in data set [2] was “localizes more in U87-MG cells than HUVEC cells”. Moreover, the “cytotoxicity compared with ICG-COOH conjugate” value in the data set on U87-MG cells [8] (U87-MG, 24 and 48 h) is “more toxic than ICG-COOH-b”.
